Source: patent US8680052B1, “Methods of treating, reducing the incidence of, and/or preventing ischemic events” (The Medicines Company, priority 2013, dated 2014)
Where two headings read alike, the source gives them in different places.

System: patients undergoing percutaneous coronary intervention (PCI)
Settings: for OR (95% CI): All-cause mortality / OR (95% CI): IDR / OR (95% CI): MI / OR (95% CI): Mortality/MI/IDR / OR (95% CI): Mortality/Q-wave MI/IDR / OR (95% CI): Mortality/Q-wave MI/Stent thrombosis / OR (95% CI): Q-wave MI / OR (95% CI): Stent thrombosis / OR (95% CI): Stroke / OR (95% CI): Mortality/MI/IDR (primary endpoint): cangrelor vs comparator arm; for Mortality/Q-wave MI/IDR / Mortality/Q-wave MI/Stent thrombosis: exploratory; for Angiographic complications (site reported): Abrupt vessel closure / Angiographic complications (site reported): Acute stent thrombosis / Angiographic complications (site reported): Need for urgent CABG / Angiographic complications (site reported): New thrombus or suspected thrombus / Angiographic complications (site reported): Threatened abrupt closure / Angiographic complications (site reported): Unsuccessful procedure: index PCI
[1] = 48-hour, MITT, listed as cangrelor

Description: The diagnosis of non-ST-segment elevation myocardial infarction required troponin I or T greater than the upper limit of normal within 24 hours of randomization (or if troponin results were unavailable at that time, creatine kinase-myocardial band isoenzyme [CK-MB] greater than the upper limit of normal). The diagnosis of unstable angina required ischemic chest discomfort occurring at rest and lasting ≧10 minutes within the 24 hours prior to randomization and dynamic electrocardiographic changes; age ≧65 years and/or diabetes mellitus were also required.
The primary efficacy endpoint was the composite of mortality, myocardial infarction, or ischemia-driven revascularization at 48 hours. The primary analysis was performed on a modified intent-to-treat population. Confirmatory analyses were performed on an intent-to-treat population. Secondary endpoints included the individual rates of mortality, myocardial infarction, new Q-wave myocardial infarction, ischemia-driven revascularization, abrupt vessel closure, or stroke at 48 hours. Mortality at 30 days and 1 year was also recorded. The clinical events committee adjudicated myocardial infarction, Q-wave myocardial infarction, ischemia-driven revascularization, stent thromboses, and stroke (ischemic or hemorrhagic). The definition of stent thrombosis was similar to the Academic Research Consortium definition of definite stent thrombosis. After review of the prespecified analyses, two exploratory endpoints less reliant on periprocedural biomarker ascertainment were examined. The exploratory endpoints, which were composed of prespecified and adjudicated endpoints, were the composite of mortality, Q-wave myocardial infarction, or ischemia-driven revascularization and the composite of mortality, Q-wave myocardial infarction, or stent thrombosis. Bleeding and adverse events through 48 hours were compared.
All efficacy analyses were performed on the modified intent-to-treat population, defined as all randomized patients who received at least one dose of study drug and underwent the index PCI. All safety-related analyses were performed on the safety population, which included all patients who received at least one dose of assigned study drug. Patients in the safety analyses were assigned to a treatment arm based on treatment actually received, not as randomized. Intent-to-treat analyses are also presented for full disclosure of results. All statistical tests were two-tailed using a level of significance of 0.05. […] Logistic regression was also used to analyze the majority of the remaining secondary endpoints.

CSCCNc1nc(SCCC(F)(F)F)nc2c1ncn2[C@@H]1O[C@H](COP(=O)(O)OP(=O)(O)C(Cl)(Cl)P(=O)(O)O)[C@@H](O)[C@H]1O [Cangrelor, cangrelor]
All-cause mortality (30-day, ITT): 36 (1.3) no. (%) | IDR (30-day, ITT): 37 (1.4) no. (%) | MI (30-day, ITT): 190 (7.1) no. (%) | Mortality/MI/IDR (30-day, ITT): 230 (8.6) no. (%) | Q-wave MI (30-day, ITT): 8 (0.3) no. (%) | Stent thrombosis (30-day, ITT): 15 (0.6) no. (%) | OR (95% CI): All-cause mortality (30-day, ITT): 0.754 (0.487, 1.167) | OR (95% CI): IDR (30-day, ITT): 0.743 (0.483, 1.142) | OR (95% CI): MI (30-day, ITT): 0.924 (0.752, 1.135) | OR (95% CI): Mortality/MI/IDR (30-day, ITT): 0.885 (0.734, 1.067) | OR (95% CI): Mortality/Q-wave MI/IDR (30-day, ITT): 0.718 (0.524, 0.984) | OR (95% CI): Mortality/Q-wave MI/Stent thrombosis (30-day, ITT): 0.648 (0.453, 0.927) | OR (95% CI): Q-wave MI (30-day, ITT): 0.526 (0.222, 1.242) | OR (95% CI): Stent thrombosis (30-day, ITT): 0.508 (0.272, 0.950) | Mortality/Q-wave MI/IDR (30-day, ITT): 69 (2.6) no. (%) | Mortality/Q-wave MI/Stent thrombosis (30-day, ITT): 51 (1.9) no. (%) | All-cause mortality (30-day, MITT): 33 (1.2) no. (%) | IDR (30-day, MITT): 37 (1.4) no. (%) | MI (30-day, MITT): 189 (7.1) no. (%) | Mortality/MI/IDR (30-day, MITT): 226 (8.5) no. (%) | Q-wave MI (30-day, MITT): 8 (0.3) no. (%) | Stent thrombosis (30-day, MITT): 15 (0.6) no. (%) | OR (95% CI): All-cause mortality (30-day, MITT): 0.725 (0.461, 1.140) | OR (95% CI): IDR (30-day, MITT): 0.796 (0.515, 1.231) | OR (95% CI): MI (30-day, MITT): 0.929 (0.756, 1.142) | OR (95% CI): Mortality/MI/IDR (30-day, MITT): 0.892 (0.739, 1.078) | OR (95% CI): Mortality/Q-wave MI/IDR (30-day, MITT): 0.730 (0.528, 1.008) | OR (95% CI): Mortality/Q-wave MI/Stent thrombosis (30-day, MITT): 0.647 (0.447, 0.935) | OR (95% CI): Q-wave MI (30-day, MITT): 0.566 (0.237, 1.352) | OR (95% CI): Stent thrombosis (30-day, MITT): 0.529 (0.282, 0.993) | Mortality/Q-wave MI/IDR (30-day, MITT): 66 (2.5) no. (%) | Mortality/Q-wave MI/Stent thrombosis (30-day, MITT): 48 (1.8) no. (%) | All-cause mortality (30-day, Safety population): 34 (1.3) no. (%) | IDR (30-day, Safety population): 37 (1.4) no. (%) | MI (30-day, Safety population): 188 (7.1) no. (%) | Mortality/MI/IDR (30-day, Safety population): 226 (8.5) no. (%) | Q-wave MI (30-day, Safety population): 8 (0.3) no. (%) | Stent thrombosis (30-day, Safety population): 15 (0.6) no. (%) | OR (95% CI): All-cause mortality (30-day, Safety population): 0.747 (0.477, 1.170) | OR (95% CI): IDR (30-day, Safety population): 0.779 (0.504, 1.202) | OR (95% CI): MI (30-day, Safety population): 0.913 (0.743, 1.122) | OR (95% CI): Mortality/MI/IDR (30-day, Safety population): 0.884 (0.732, 1.067) | OR (95% CI): Mortality/Q-wave MI/IDR (30-day, Safety population): 0.732 (0.531, 1.010) | OR (95% CI): Mortality/Q-wave MI/Stent thrombosis (30-day, Safety population): 0.651 (0.452, 0.938) | OR (95% CI): Q-wave MI (30-day, Safety population): 0.528 (0.224, 1.248) | OR (95% CI): Stent thrombosis (30-day, Safety population): 0.529 (0.282, 0.993) | Mortality/Q-wave MI/IDR (30-day, Safety population): 67 (2.5) no. (%) | Mortality/Q-wave MI/Stent thrombosis (30-day, Safety population): 49 (1.8) no. (%) | All-cause mortality (48-hour, ITT): 8 (0.3) no. (%) | IDR (48-hour, ITT): 19 (0.7) no. (%) | MI (48-hour, ITT): 177 (6.6) no. (%) | Mortality/MI/IDR (48-hour, ITT): 187 (6.9) no. (%) | Q-wave MI (48-hour, ITT): 4 (0.1) no. (%) | Stent thrombosis (48-hour, ITT): 5 (0.2) no. (%) | Stroke (48-hour, ITT): 7 (0.3) no. (%) | OR (95% CI): All-cause mortality (48-hour, ITT): 0.415 (0.181, 0.950) | OR (95% CI): IDR (48-hour, ITT): 0.721 (0.398, 1.307) | OR (95% CI): MI (48-hour, ITT): 0.906 (0.734, 1.120) | OR (95% CI): Mortality/MI/IDR (48-hour, ITT): 0.859 (0.701, 1.054) | OR (95% CI): Mortality/Q-wave MI/IDR (48-hour, ITT): 0.558 (0.341, 0.915) | OR (95% CI): Mortality/Q-wave MI/Stent thrombosis (48-hour, ITT): 0.409 (0.224, 0.749) | OR (95% CI): Q-wave MI (48-hour, ITT): 0.439 (0.135, 1.428) | OR (95% CI): Stent thrombosis (48-hour, ITT): 0.308 (0.113, 0.842) | OR (95% CI): Stroke (48-hour, ITT): 1.155 (0.388, 3.442) | Mortality/Q-wave MI/IDR (48-hour, ITT): 25 (0.9) no. (%) | Mortality/Q-wave MI/Stent thrombosis (48-hour, ITT): 15 (0.6) no. (%) | All-cause mortality (48-hour, MITT): 6 (0.2) no. (%) | IDR (48-hour, MITT): 19 (0.7) no. (%) | MI (48-hour, MITT): 177 (6.7) no. (%) | Mortality/MI/IDR (primary endpoint) (48-hour, MITT): 185 (7.0) no. (%) | Q-wave MI (48-hour, MITT): 4 (0.2) no. (%) | Stent thrombosis (48-hour, MITT): 5 (0.2) no. (%) | Stroke (48-hour, MITT): 7 (0.3) no. (%) | OR (95% CI): All-cause mortality (48-hour, MITT): 0.330 (0.131, 0.833) | OR (95% CI): IDR (48-hour, MITT): 0.786 (0.430, 1.439) | OR (95% CI): MI (48-hour, MITT): 0.917 (0.742, 1.133) | OR (95% CI): Mortality/MI/IDR (primary endpoint) (48-hour, MITT): 0.867 (0.706, 1.065) | OR (95% CI): Mortality/Q-wave MI/IDR (48-hour, MITT): 0.554 (0.332, 0.926) | OR (95% CI): Mortality/Q-wave MI/Stent thrombosis (48-hour, MITT): 0.377 (0.199, 0.717) | OR (95% CI): Q-wave MI (48-hour, MITT): 0.497 (0.149, 1.652) | OR (95% CI): Stent thrombosis (48-hour, MITT): 0.310 (0.113, 0.847) | OR (95% CI): Stroke (48-hour, MITT): 1.394 (0.442, 4.398) | OR (95% CI): All-cause mortality [1]: 0.33 | OR (95% CI): Mortality/MI/IDR (primary endpoint) [1]: 0.87 | OR (95% CI): Stent thrombosis [1]: 0.31 | Mortality/Q-wave MI/IDR (48-hour, MITT): 23 (0.9) no. (%) | Mortality/Q-wave MI/Stent thrombosis (48-hour, MITT): 13 (0.5) no. (%) | OR (95% CI): All-cause mortality (48-hour, Safety population): 0.385 (0.161, 0.924) | OR (95% CI): IDR (48-hour, Safety population): 0.754 (0.414, 1.373) | OR (95% CI): MI (48-hour, Safety population): 0.901 (0.729, 1.113) | OR (95% CI): Mortality/MI/IDR (48-hour, Safety population): 0.858 (0.699, 1.053) | OR (95% CI): Mortality/Q-wave MI/IDR (48-hour, Safety population): 0.564 (0.341, 0.935) | OR (95% CI): Mortality/Q-wave MI/Stent thrombosis (48-hour, Safety population): 0.395 (0.212, 0.735) | OR (95% CI): Q-wave MI (48-hour, Safety population): 0.441 (0.136, 1.435) | OR (95% CI): Stent thrombosis (48-hour, Safety population): 0.310 (0.113, 0.846) | OR (95% CI): Stroke (48-hour, Safety population): 1.394 (0.442, 4.396) | Mortality/Q-wave MI/IDR (48-hour, Safety population): 24 (0.9) no. (%) | Mortality/Q-wave MI/Stent thrombosis (48-hour, Safety population): 14 (0.5) no. (%) | All-cause mortality (48-hour, safety population): 7 (0.3) no. (%) | IDR (48-hour, safety population): 19 (0.7) no. (%) | MI (48-hour, safety population): 176 (6.6) no. (%) | Mortality/MI/IDR (48-hour, safety population): 185 (7.0) no. (%) | Q-wave MI (48-hour, safety population): 4 (0.2) no. (%) | Stent thrombosis (48-hour, safety population): 5 (0.2) no. (%) | Stroke (48-hour, safety population): 7 (0.3) no. (%) | Rates of stent thrombosis (48 hours): 0.2% | rate of mortality at 48 hours (48 hours): 0.2% | primary endpoint (mortality, myocardial infarction, or ischemia-driven revascularization), patients with event (48 hours, MITT): 7.0% | Angiographic complications (site reported): Abrupt vessel closure (ITT): 13 (0.5) | Angiographic complications (site reported): Acute stent thrombosis (ITT): 1 (0.0) | Angiographic complications (site reported): Need for urgent CABG (ITT): 5 (0.2) | Angiographic complications (site reported): New thrombus or suspected thrombus (ITT): 14 (0.5) | Angiographic complications (site reported): Threatened abrupt closure (ITT): 10 (0.4) | Angiographic complications (site reported): Unsuccessful procedure (ITT): 84 (3.1) | Angiographic complications (site reported): Abrupt vessel closure (MITT): 13 (0.5) | Angiographic complications (site reported): Acute stent thrombosis (MITT): 1 (0.0) | Angiographic complications (site reported): Need for urgent CABG (MITT): 5 (0.2) | Angiographic complications (site reported): New thrombus or suspected thrombus (MITT): 14 (0.5) | Angiographic complications (site reported): Threatened abrupt closure (MITT): 10 (0.4) | Angiographic complications (site reported): Unsuccessful procedure (MITT): 81 (3.1) | Angiographic complications (site reported): Abrupt vessel closure (Safety population): 13 (0.5) | Angiographic complications (site reported): Acute stent thrombosis (Safety population): 1 (0.0) | Angiographic complications (site reported): Need for urgent CABG (Safety population): 5 (0.2) | Angiographic complications (site reported): New thrombus or suspected thrombus (Safety population): 14 (0.5) | Angiographic complications (site reported): Threatened abrupt closure (Safety population): 10 (0.4) | Angiographic complications (site reported): Unsuccessful procedure (Safety population): 81 (3.1) | primary efficacy endpoint (subgroup of 1659 patients without baseline troponin elevation): 4.6% | OR, primary efficacy endpoint (subgroup of 1659 patients without baseline troponin elevation, cangrelor vs placebo): 0.62
